The numbers were not newly measured in patent publication US20090099301A1, “MOLECULAR IMPRINTINGS FOR RECOGNITION IN AQUEOUS MEDIA, METHODS FOR PREPARING SAME AND USES THEREOF” (POLYINTELL, priority 2006, published 2009), which cites them from elsewhere.

For this data set the following is noted: basic medium (pH 11).

As for `CC(C)NCC(O)COc1cccc2ccccc12` (stereo not shown) [propranolol], the solubility in water entry is listed as “insoluble”.
